Source: article PMC7914897, “Cytotoxic Potential of a-Azepano- and 3-Amino-3,4-SeCo-Triterpenoids” (International Journal of Molecular Sciences, 2021)

Experiments:
[1] = test system: NCI-H322M (NSC lung cancer); test: NCI-60 screen (SRB, 48 h); settings: Homo sapiens
[2] = test system: MCF7 (Breast cancer); test: NCI-60 screen (SRB, 48 h); settings: Homo sapiens
[3] = test system: UO-31 (Renal cancer); test: NCI-60 screen (SRB, 48 h); settings: Homo sapiens
[4] = test system: MOLT-4 (Leukemia); test: NCI-60 screen (SRB, 48 h); settings: Homo sapiens
[5] = test system: SF-295 (CNS cancer); test: NCI-60 screen (SRB, 48 h); settings: Homo sapiens
[6] = test system: Colon Cancer subpanel; test: NCI-60 screen, subpanel; settings: Homo sapiens
[7] = test system: HL-60(TB) (Leukemia); test: NCI-60 screen (SRB, 48 h); format: cell-based; settings: Homo sapiens
[8] = test system: Breast cancer subpanel; test: NCI-60 screen, subpanel; settings: Homo sapiens
[9] = test system: EKVX (NSC lung cancer); test: NCI-60 screen (SRB, 48 h); settings: Homo sapiens
[10] = test system: MDA-MB-468 (Breast cancer); test: cells; settings: Homo sapiens
[11] = test system: KM12 (Colon cancer); test: NCI-60 screen (SRB, 48 h); settings: Homo sapiens
[12] = test system: Renal Cancer subpanel; test: NCI-60 screen, subpanel; settings: Homo sapiens
[13] = test system: RXF 393 (Renal cancer); test: NCI-60 screen (SRB, 48 h); settings: Homo sapiens
[14] = test system: CAKI-1 (Renal cancer); test: NCI-60 screen (SRB, 48 h); settings: Homo sapiens
[15] = test system: NCI-H460 (NSC lung cancer); test: NCI-60 screen (SRB, 48 h); settings: Homo sapiens
[16] = test system: OVCAR-3 (Ovarian cancer); test: cells; settings: Homo sapiens
[17] = test system: Prostate cancer subpanel; test: NCI-60 screen, subpanel; settings: Homo sapiens
[18] = test system: SR (Leukemia); test: NCI-60 screen (SRB, 48 h); format: cell-based
[19] = test system: SK-MEL-5 (Melanoma); test: NCI-60 screen (SRB, 48 h); settings: Homo sapiens
[20] = test system: PC-3 (Prostate cancer); test: NCI-60 screen (SRB, 48 h); settings: Homo sapiens
[21] = test system: SNB-19 (CNS cancer); test: NCI-60 screen (SRB, 48 h); settings: Homo sapiens
[22] = test system: NSC lung cancer subpanel; test: NCI-60 screen, subpanel; settings: Homo sapiens
[23] = test system: BT-549 (Breast cancer); test: NCI-60 screen (SRB, 48 h); format: cell-based; settings: Homo sapiens
[24] = test system: COLO 205 (Colon cancer); test: NCI-60 screen (SRB, 48 h)

SMILES: CC1(C)CC[C@]2(CO)CC[C@]3(C)C(=CC[C@@H]4[C@@]5(C)CCCNC(C)(C)[C@@H]5CC[C@]43C)[C@@H]2C1 [Compound 3, azepanoerythrodiol]
- GI50 [1]: 3.69 µM
- IC (TGI) ([1]; 48 h, read-out: TGI): 10.3 µM
- CC50 ([1]; read-out: LC50): 36 µM
- GI50 ([2]; MCF7): 2160 nM
- IC (TGI) ([2]; MCF7, 48 h, read-out: TGI): 5.54 µM
- CC50 ([2]; MCF7, read-out: LC50): 22.7 µM
- GI50 ([3]; UO-31): 10.5 µM
- IC (TGI) ([3]; UO-31, 48 h, read-out: TGI): 25.5 µM
- CC50 ([3]; UO-31, read-out: LC50): 62.1 µM
- GI50 ([4]; MOLT-4): 2500 nM
- CC50 ([4]; MOLT-4, read-out: LC50): > 100 µM
- GI50 ([5]; SF-295): 1770 nM
- IC (TGI) ([5]; SF-295, 48 h, read-out: TGI): 3.62 µM
- CC50 ([5]; SF-295, read-out: LC50): 7.4 µM
- IC (TGI) ([6]; 48 h, read-out: TGI MG_MID): 3.3 µM
- GI50 ([6]; read-out: GI50 MG_MID): 1990 nM
- CC50 ([6]; read-out: LC50 MG_MID): 12.4 µM
- GI50 [7]: 1950 nM
- CC50 ([7]; read-out: LC50 (the source's name)): > 100 µM
- IC (TGI) ([8]; 48 h, read-out: TGI MG_MID): 14.6 µM
- GI50 ([8]; read-out: GI50 MG_MID): 3.12 µM
- CC50 ([8]; read-out: LC50 MG_MID): 43.6 µM
- GI50 [9]: 4.04 µM
- IC (TGI) ([9]; 48 h, read-out: TGI): 20.1 µM
- CC50 ([9]; read-out: LC50): > 100 µM
- GI50 ([10]; MDA-MB-468): 1790 nM
- IC (TGI) ([10]; MDA-MB-468, 48 h, read-out: TGI): 3.74 µM
- CC50 ([10]; MDA-MB-468, read-out: LC50): 7.81 µM
- GI50 ([11]; KM12): 2070 nM
- IC (TGI) ([11]; KM12, 48 h, read-out: TGI): 4.26 µM
- CC50 ([11]; KM12, read-out: LC50): 8.78 µM
- IC (TGI) ([12]; 48 h, read-out: TGI MG_MID): 17.4 µM
- GI50 ([12]; read-out: GI50 MG_MID): 5.94 µM
- CC50 ([12]; read-out: LC50 MG_MID): 49.7 µM
- GI50 ([13]; RXF 393): 2880 nM
- IC (TGI) ([13]; RXF 393, 48 h, read-out: TGI): 11.7 µM
- CC50 ([13]; RXF 393, read-out: LC50): 48.6 µM
- GI50 ([14]; CAKI-1): 3.05 µM
- IC (TGI) ([14]; CAKI-1, 48 h, read-out: TGI): 13.7 µM
- CC50 ([14]; CAKI-1, read-out: LC50): 53.6 µM
- GI50 ([15]; NCI-H460): 1920 nM
- IC (TGI) ([15]; NCI-H460, 48 h, read-out: TGI): 3.8 µM
- CC50 ([15]; NCI-H460, read-out: LC50): 7.56 µM
- GI50 ([16]; OVCAR-3): 1960 nM
- IC (TGI) ([16]; OVCAR-3, 48 h, read-out: TGI): 3.84 µM
- CC50 ([16]; OVCAR-3, read-out: LC50): 7.52 µM
- IC (TGI) ([17]; 48 h, read-out: TGI MG_MID): 4.02 µM
- GI50 ([17]; read-out: GI50 MG_MID): 1890 nM
- CC50 ([17]; read-out: LC50 MG_MID): 8.54 µM
- TGI [18]: > 100 µM
- GI50 ([18]; Homo sapiens): 2220 nM
- CC50 ([18]; Homo sapiens, read-out: LC50 (the source's name)): > 100 µM
- GI50 ([19]; SK-MEL-5): 1680 nM
- IC (TGI) ([19]; SK-MEL-5, 48 h, read-out: TGI): 3.14 µM
- CC50 ([19]; SK-MEL-5, read-out: LC50): 5.86 µM
- GI50 ([20]; PC-3): 1480 nM
- IC (TGI) ([20]; PC-3, 48 h, read-out: TGI): 3.33 µM
- CC50 ([20]; PC-3, read-out: LC50): 7.47 µM
- GI50 ([21]; SNB-19): 11.7 µM
- IC (TGI) ([21]; SNB-19, 48 h, read-out: TGI): 2.61 µM
- CC50 ([21]; SNB-19, read-out: LC50): 58.1 µM
- IC (TGI) ([22]; 48 h, read-out: TGI MG_MID): 17.8 µM
- GI50 ([22]; read-out: GI50 MG_MID): 2870 nM
- CC50 ([22]; read-out: LC50 MG_MID): 44.1 µM
- GI50 ([23]; BT-549): 1010 nM
- IC (TGI) ([23]; BT-549, 48 h): 24.5 µM
- CC50 ([23]; BT-549, read-out: LC50 (the source's name)): 59.2 µM
- Growth % of the Most Sensitive Cell Lines ([24]; COLO 205, 1 dose 10 µM): −88.44%
- GI50 ([24]; Homo sapiens, COLO 205): 1830 nM
- IC (TGI) ([24]; Homo sapiens, COLO 205, 48 h, read-out: TGI): 3.25 µM
- CC50 ([24]; Homo sapiens, COLO 205, read-out: LC50): 5.77 µM
